Data: PubChem BioAssay (NCI)
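Following 48 hours of exposure in 96-well plates, responses at five concentrations were used to interpolate endpoints linearly. Definition used: TGI = concentration required for complete inhibition of growth.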

Assays:
Assay in all cases: growth of human tumour cells (NCI), 48 h
SF-539 CNS = tested on: SF-539 CNS
NCI-H460 lung = tested on: NCI-H460 lung
A549 NSCLC = tested on: A549 NSCLC
786-0 renal = tested on: 786-0 renal
EKVX NSCLC = tested on: EKVX NSCLC
SN12C renal = tested on: SN12C renal
PC-3 prostate = tested on: PC-3 prostate
NCI/ADR-RES ovarian = tested on: NCI/ADR-RES ovarian
HCT-15 colon = tested on: HCT-15 colon
SK-MEL-28 melanoma = tested on: SK-MEL-28 melanoma
HT29 colon = tested on: HT29 colon
SR leukemia = tested on: SR leukemia
COLO 205 colon = tested on: COLO 205 colon
A498 renal = tested on: A498 renal
UACC-257 melanoma = tested on: UACC-257 melanoma
CAKI-1 renal = tested on: CAKI-1 renal
M14 melanoma = tested on: M14 melanoma
U251 CNS = tested on: U251 CNS

Structure (SMILES) | TGI (SF-539 CNS) [µM] | TGI (NCI-H460 lung) [µM] | TGI (A549 NSCLC) [µM] | TGI (786-0 renal) [µM] | TGI (EKVX NSCLC) [µM] | TGI (SN12C renal) [µM] | TGI (PC-3 prostate) [µM] | TGI (NCI/ADR-RES ovarian) [µM] | TGI (HCT-15 colon) [µM] | TGI (SK-MEL-28 melanoma) [µM] | TGI (HT29 colon) [µM] | TGI (SR leukemia) [µM] | TGI (COLO 205 colon) [µM] | TGI (A498 renal) [µM] | TGI (UACC-257 melanoma) [µM] | TGI (CAKI-1 renal) [µM] | TGI (M14 melanoma) [µM] | TGI (U251 CNS) [µM]
CC1(C)N(OC2CCCCO2)C(c2ccccc2)C(c2ccccc2)=[N+]1[O-] (centres undefined) | > 100 | > 100 | > 100 | > 100 | > 100 | > 100 | > 100 | > 100 | > 100 | > 100 | > 100 | > 100 | > 100 | > 100 | > 100 | > 100 | > 100 | > 100
COc1ccc(C(=O)/C=C2\c3ccccc3C(=O)N2C)cc1 | > 100 | > 100 | > 100 | > 100 | > 100 | > 100 | > 100 | > 100 | > 100 | > 100 | > 100 | > 100 | > 100 | > 100 | > 100 | > 100 | > 100 | > 100
COC(=O)c1cc(C)n2c1CS[C@@H]2c1ccccc1 | – | – | > 100 | > 100 | 93.2 | > 100 | > 100 | 87 | > 100 | > 100 | > 100 | 54.6 | 80 | 88 | > 100 | > 100 | 73.4 | > 100
CC1=Nc2nc3ccccc3n2C(C)(C)C1 | > 100 | > 100 | > 100 | > 100 | > 100 | – | > 100 | > 100 | > 100 | – | > 100 | > 100 | > 100 | > 100 | > 100 | > 100 | > 100 | > 100
COc1ccc(N2C(=O)CSC2c2cc3cc(Br)ccc3nc2Cl)cc1 (centres undefined) | > 50 | > 50 | > 50 | > 50 | > 50 | > 50 | > 50 | > 50 | > 50 | > 50 | > 50 | > 50 | > 50 | > 50 | > 50 | > 50 | > 50 | –
CCCCCCc1cc2cc(C(=O)Nc3ccccc3F)c(=N)oc2cc1O | 39.3 | 97.8 | 26.9 | 24.9 | 32.3 | – | 26.8 | 16.8 | 22.3 | 56.8 | 62.9 | 50.2 | 39.3 | 37.2 | 42.2 | 22.9 | 28.7 | 17.9
CN(C)CCCc1cccnc1 | – | > 100 | > 100 | > 100 | > 100 | > 100 | > 100 | > 100 | > 100 | > 100 | > 100 | > 100 | > 100 | > 100 | > 100 | > 100 | > 100 | > 100
